pIC50: −log10 of the molar value.
Columns and labels:
[1] = test system: MT4; assay: Ability to inhibit the spread of viral infection in MT-4 human T-lymphoid cells infected with HIV IIIb; format: functional
[2] = biological target: Human immunodeficiency virus type 1 protease (Human immunodeficiency virus 1, UniProt Q72874); assay: Ability to prevent cleavage of acompound by the HIV protease wild-type enzyme

| SMILES | ClC95 [1] [nM] | pIC50 [2] |
| --- | --- | --- |
| Cc1cc(O)cc(C)c1CNC(=O)[C@H](Cc1ccccc1)C[C@@H](O)CN1CCN(S(=O)(=O)c2ccc3c(c2)CCN3c2ncccn2)C[C@@H]1C(=O)NC(C)(C)C | 31.3 | 9.70 |
| Cc1cc(O)cc(C)c1CNC(=O)[C@H](Cc1ccccc1)C[C@@H](O)CN1CCN(S(=O)(=O)c2cccs2)C[C@@H]1C(=O)NC(C)(C)C | 62.5 | 9.33 |
| CSc1nccc(-c2ccc(S(=O)(=O)N3CCN(C[C@H](O)C[C@@H](Cc4ccccc4)C(=O)NCc4c(C)cc(O)cc4C)[C@@H](C(=O)NC(C)(C)C)C3)s2)n1 | 62.5 | > 9.70 |
| CC(C)(C)NC(=O)[C@H]1CN(S(=O)(=O)c2cccs2)CCN1C[C@H](O)C[C@@H](Cc1ccccc1)C(=O)NC1c2ccccc2C[C@H]1O (stereo partly drawn) | 31.3 | 10.00 |
